Converted amounts (≈) assume the structure as drawn.
Legend:
[1] = test system: P. falciparum NF54 strain (sensitive to standard antimalarials); test: semiautomated microdilution assay, [3H]-hypoxanthine incorporation, NF54 strain; type: cell-based, Plasmodium falciparum; conditions: NF54 strain, 72 h incubation
Procedure: (§1) Various OZ compounds were tested by the semiautomated microdilution assay against intraerythrocytic forms of Plasmodium falciparum derived from asynchronous stock cultures.
(§2) Fifty percent inhibitory concentration (IC50) were estimated by Logit regression analysis.

[2] = test system: ANKA strain of P. berghei; test: single dose STI in vivo screen in infected mice; parameters: species or system Plasmodium berghei; conditions: for Activity (%) po / Activity (%) sc / Activity (%) SSVpo / Activity (%) 3 mg/kg SSV po / Activity (%) 10 mg/kg SSV po: percent reduction in parasitemia day 3 post-infection; for Activity (%) po / Survival (days) po: single 10 mg/kg po in 3% ethanol and 7% Tween 80; for Activity (%) po / Activity (%) sc / Activity (%) SSVpo: mice; for Activity (%) sc / Survival (days) sc: single 10 mg/kg sc in 3% ethanol and 7% Tween 80; for Activity (%) SSVpo: single po dose in standard suspending vehicle (SSV); for Survival (days) po / Survival (days) sc / Survival (days) SSVpo: untreated control 5.6 ± 0.3; for Survival (days) SSVpo: single po dose in SSV; for Activity (%) 3 mg/kg SSV po / Survival (days) 3 mg/kg SSV po: single 3 mg/kg po in SSV; for Survival (days) 10 mg/kg SSV po / Activity (%) 10 mg/kg SSV po: single 10 mg/kg po in SSV
Procedure: In the single dose STI in vivo screen, Moro SPF or NMRI mice infected with the ANKA strain of P. berghei (groups of 3-5 mice) were treated on day one post-infection with trioxolanes dissolved or suspended in 3% ethanol and 7% Tween 80. […] SSV consists of 0.5% w/v CMC, 0.5% v/v benzyl alcohol, 0.4% v/v Tween 80, and 0.9% w/v sodium chloride in water. Antimalarial activity was measured by percent reduction in parasitemia on day three post-infection and survival times compared to an untreated control group. Survival to day 30 post-infection is considered to be a cure. […] Other factors influencing antimalarial activity include the stability of carbon radicals formed by β-scission subsequent to the initial electron transfer to the peroxide bond and the influence of steric effects remote from the peroxide bond on the interactions between carbon radicals and potential drug targets.

[3] = test system: P. falciparum K1 strain (Thailand resistant to chloroquine); test: semiautomated microdilution assay, [3H]-hypoxanthine incorporation, K1 strain; type: cell-based, Plasmodium falciparum; conditions: K1 strain, 72 h incubation
Procedure: as §1, §2

Row | Structure (SMILES) | IC50 (ng/ml) K1 [3] [ng/mL] | Activity (%) 3 mg/kg SSV po [2] [%] | Survival (days) 10 mg/kg SSV po [2] | Activity (%) 10 mg/kg SSV po [2] [%] | Survival (days) 3 mg/kg SSV po [2] | other results
1 | O=C(Cn1ccnc1)N1CCC2(CC1)OOC1(O2)C2CC3CC(C2)CC1C3 (stereo not drawn) [OZ103] |  |  |  |  |  | IC50 (ng/ml) NF54 [1]: 0.17 ng/mL (≈ 0.455 nM); Activity (%) po [2]: 86%; Activity (%) sc [2]: 87%; Activity (%) SSVpo [2]: 63%; Survival (days) po [2]: 7.3 days; Survival (days) sc [2]: 7.3 days; Survival (days) SSVpo [2]: 6.7 days
2 | CN(C)C(=O)N1CCC2(CC1)OOC1(O2)C2CC3CC(C2)CC1C3 (stereo not drawn) [OZ133] | 0.70 (≈ 2.08 nM) |  |  |  |  | Activity (%) po [2]: 94%; Activity (%) sc [2]: 72%; Activity (%) SSVpo [2]: 97%; Survival (days) po [2]: 7.0 days; Survival (days) sc [2]: 7.0 days; Survival (days) SSVpo [2]: 7.3 days
3 | CCOC(=O)c1ccc([C@H]2CC[C@]3(CC2)OOC2(O3)C3CC4CC(C3)CC2C4)cc1 (stereo partly drawn) [OZ164] |  |  |  |  |  | IC50 ([3]; Plasmodium falciparum, read-out: IC50 (ng/ml) K1): 59 ng/mL (≈ 143 nM); Activity (%) po [2]: 11%; Activity (%) sc [2]: 7%; Activity (%) SSVpo [2]: 0%; Survival (days) SSVpo [2]: 5.7 days
4 | CC(C)N(C(=O)N1CCC2(CC1)OOC1(O2)C2CC3CC(C2)CC1C3)C(C)C (stereo not drawn) [OZ194] |  |  |  |  |  | IC50 (ng/ml) NF54 [1]: 6.6 ng/mL (≈ 16.8 nM); Activity (%) po [2]: 87%; Activity (%) sc [2]: 99.95%; Activity (%) SSVpo [2]: 73%; Survival (days) po [2]: 8.3 days; Survival (days) sc [2]: 20.3 days; Survival (days) SSVpo [2]: 8.0 days
5 | NC(=O)N1CCC2(CC1)OOC1(O2)C2CC3CC(C2)CC1C3 (stereo not drawn) [OZ199] | 0.69 (≈ 2.24 nM) |  |  |  |  | 
6 | O=C(NC[C@H]1CC[C@]2(CC1)OO[C@]1(O2)C2CC3CC(C2)CC1C3)c1cccnc1 [OZ273] | 0.97 (≈ 2.43 nM) | 64 |  |  |  | 
7 | NC(=O)c1ccc(NC[C@H]2CC[C@]3(CC2)OOC2(O3)C3CC4CC(C3)CC2C4)cc1 (stereo partly drawn) [OZ286] | 0.94 (≈ 2.28 nM) | 60 | 8.7 days |  |  | 
8 | CCOC(=O)CNC[C@H]1CC[C@]2(CC1)OO[C@]1(O2)C2CC3CC(C2)CC1C3 [OZ290] | 0.42 (≈ 1.11 nM) | 95 | 9.0 days |  |  | 
9 | NCCNC(=O)C[C@H]1CC[C@]2(CC1)OO[C@]1(O2)C2CC3CC(C2)CC1C3 [OZ305] | 1.8 (≈ 4.94 nM) | 96 | 9.2 days | 99.93 |  | 
10 | NC(=O)c1cn(C[C@H]2CC[C@]3(CC2)OO[C@]2(O3)C3CC4CC(C3)CC2C4)cn1 [OZ320] | 0.68 (≈ 1.75 nM) | 92 | 10.4 days | 99.76 | 11.8 days | 
11 | O=CNCC(=O)NC[C@H]1CC[C@]2(CC1)OO[C@]1(O2)C2CC3CC(C2)CC1C3 [OZ322] | 0.90 (≈ 2.38 nM) | 61 | 10.0 days | 98 |  | 
12 | O=S(=O)(C[C@H]1CC[C@]2(CC1)OO[C@]1(O2)C2CC3CC(C2)CC1C3)c1cccc[n+]1[O-] [OZ324] |  |  |  | 60 |  | 
13 | c1cnc(OC[C@H]2CC[C@]3(CC2)OO[C@]2(O3)C3CC4CC(C3)CC2C4)nc1 [OZ325] | 0.62 (≈ 1.66 nM) | 30 | 8.8 days | 99.43 |  | 
14 | c1cnc(NC[C@H]2CC[C@]3(CC2)OO[C@]2(O3)C3CC4CC(C3)CC2C4)nc1 [OZ326] | 0.65 (≈ 1.75 nM) | 7 | 7.4 days | 80 |  | 
15 | NC(=O)[C@@H]1CCCN1C[C@H]1CC[C@]2(CC1)OO[C@]1(O2)C2CC3CC(C2)CC1C3 [OZ327] | 0.85 (≈ 2.18 nM) | 72 | 9.8 days | 97 |  | 
16 | Nc1nccnc1C(=O)NC[C@H]1CC[C@]2(CC1)OO[C@]1(O2)C2CC3CC(C2)CC1C3 [OZ330] | 0.55 (≈ 1.33 nM) | 82 |  | 99.96 |  | 
17 | Cn1nnnc1SC[C@H]1CC[C@]2(CC1)OO[C@]1(O2)C2CC3CC(C2)CC1C3 [OZ331] |  | 66 | 9.0 days | 99.47 |  | 
18 | Cn1nnnc1S(=O)(=O)C[C@H]1CC[C@]2(CC1)OO[C@]1(O2)C2CC3CC(C2)CC1C3 [OZ332] |  | 0 |  | 8 |  | 
19 | O=C(NC[C@H]1CC[C@]2(CC1)OO[C@]1(O2)C2CC3CC(C2)CC1C3)[C@@H]1CCCN1 [OZ337] |  | 97 | 8.6 days | 99.92 | 11.6 days | 
20 | N[C@H]1CCN(C(=O)C[C@H]2CC[C@]3(CC2)OO[C@]2(O3)C3CC4CC(C3)CC2C4)C1 [OZ338] |  | 99.80 | 9.8 days | 99.93 |  | 
21 | N=C(N)NC(=O)C[C@H]1CC[C@]2(CC1)OO[C@]1(O2)C2CC3CC(C2)CC1C3 [OZ341] |  | 32 | 8.0 days | 97 |  | 
22 | O=C(C[C@H]1CC[C@]2(CC1)OO[C@]1(O2)C2CC3CC(C2)CC1C3)N1CCS(=O)(=O)CC1 [OZ342] |  | 0 | 6.8 days | 27 |  | 
23 | CS(=O)(=O)N1CCN(C(=O)C[C@H]2CC[C@]3(CC2)OO[C@]2(O3)C3CC4CC(C3)CC2C4)CC1 [OZ344] |  | 0 | 7.8 days | 17 | 7.4 days | 
24 | CS(=O)(=O)C1CCN(C(=O)C[C@H]2CC[C@]3(CC2)OO[C@]2(O3)C3CC4CC(C3)CC2C4)CC1 [OZ345] |  | 0 | 9.2 days | 75 | 6.6 days | 
25 | CS(=O)(=O)CC(=O)NC[C@H]1CC[C@]2(CC1)OO[C@]1(O2)C2CC3CC(C2)CC1C3 [OZ350] |  | 69 | 10.4 days | 99.17 | 9.6 days | 
26 | c1c[nH]c(C[C@H]2CC[C@]3(CC2)OO[C@]2(O3)C3CC4CC(C3)CC2C4)n1 [OZ355] |  | 0 | 7.0 days | 71 | 6.2 days | 
27 | O=C(NC[C@H]1CC[C@]2(CC1)OO[C@]1(O2)C2CC3CC(C2)CC1C3)c1cnccn1 [OZ356] |  | 87 | 8.6 days | 99.64 | 8.0 days | 
28 | N[C@H]1CC[C@]2(CC1)OO[C@]1(O2)C2CC3CC(C2)CC1C3 [OZ362] |  | 58 | 9.8 days | 98 | 7.0 days | 
29 | O=C([C@H]1CC[C@@]2(CC1)OO[C@@]1(O2)C2CC3CC(C2)CC1C3)N1CCNCC1 [OZ365] | 0.79 (≈ 2.1 nM) | 92 | 8.0/8.0 days | 99.57 | 8.0/8.0 days | 

Reference: US6906205B2, “Spiro and dispiro 1,2,4-trioxolane antimalarials” (Medicines for Malaria Venture MMV, priority 2002, dated 2005)
